According to the Deep4Chem optical property database:
Blank lines part the entries; values can stand above or below the compound they belong to.

Assay: solvent given as SMILES

Structure (SMILES): CCCCN1C(=O)c2cc(Oc3ccc(C(C)(C)C)cc3)c3c4c(Oc5ccc(C(C)(C)C)cc5)cc5c6c(cc(Oc7ccc(C(C)(C)C)cc7)c(c7c(Oc8ccc(C(C)(C)C)cc8)cc(c2c37)C1=O)c64)C(=O)N(CCCC)C5=O
emission maximum (in ClC(Cl)Cl): 615 nm
emission maximum (in ClCCl): 607 nm

Structure (SMILES): NCCCCCCCCCCCCN1C(=O)c2ccc3c4ccc5c6c(ccc(c7ccc(c2c37)C1=O)c64)C(=O)N(c1ccc(O)cc1)C5=O
emission maximum (in CN(C)C=O): 534 nm

Structure (SMILES): O=S(=O)([O-])c1ccccc1/C=C/c1ccc(-c2nnc(-c3ccc(/C=C/c4ccccc4S(=O)(=O)[O-])cc3)o2)cc1
emission maximum (in C1CCOC1): 415 nm
emission maximum (in CC(C)=O): 416 nm
emission maximum (in CN(C)C=O): 422 nm

Structure (SMILES): CC1=CC2=Nc3nc(C)[n+](C)cc3CN2C=C1
emission maximum (in CC#N): 432 nm
emission maximum (in CCO): 433 nm
emission maximum (in O): 426 nm

Structure (SMILES): CCCCN(CCCC)c1ccc(C#Cc2cc(C#Cc3ccc(C#N)cc3)c(C#Cc3ccc(C#N)cc3)cc2C#Cc2ccc(N(CCCC)CCCC)cc2)cc1
emission maximum (in ClCCl): 563 nm
emission maximum (in c1ccccc1): 508 nm

Structure (SMILES): c1ccc(-c2nc3ccccc3nc2-c2ccc(-n3c4ccccc4c4ccccc43)cc2)cc1
emission maximum (in Cc1ccccc1): 434 nm

Structure (SMILES): O=S(=O)(c1cccc(-n2c3ccccc3c3ccccc32)c1)c1cccc(-n2c3ccccc3c3ccccc32)c1
emission maximum (in C1CCOC1): 426 nm
emission maximum (in CCCCC(CC)n1c2ccc(-n3c4ccccc4c4ccccc43)cc2c2cc(-n3c4ccccc4c4ccccc43)ccc21): 409.97 nm
emission maximum (in Cc1ccccc1): 405 nm
emission maximum (in ClC(Cl)Cl): 422 nm
emission maximum (in c1cc(-n2c3ccccc3c3ccccc32)cc(-n2c3ccccc3c3ccccc32)c1): 419.94 nm

Structure (SMILES): CC(=O)c1c2c(cc3cc(N(C)C)ccc13)CCC2
emission maximum (in C1CCCCC1): 445 nm
emission maximum (in C1CCOC1): 505 nm
emission maximum (in C1COCCO1): 495 nm
emission maximum (in CC#N): 545 nm
emission maximum (in CCO): 605 nm
emission maximum (in CS(C)=O): 558 nm
emission maximum (in Cc1ccccc1): 481 nm
emission maximum (in ClC(Cl)Cl): 511 nm
emission maximum (in ClCCl): 509 nm

Structure (SMILES): CCCCCCC1(CCCCCC)c2cc(-c3ccc(-c4ccc(-c5ccc(-c6ccc7c(c6)C(CCCCCC)(CCCCCC)c6cc(-n8c9ccccc9c9ccccc98)ccc6-7)s5)c5nsnc45)s3)ccc2-c2ccc(-n3c4ccccc4c4ccccc43)cc21
emission maximum (in ClCCl): 611 nm

Structure (SMILES): c1ccc2c(c1)CCc1ccccc1N2
emission maximum (in CC#N): 354 nm
emission maximum (in CCCCCC): 329 nm
emission maximum (in CO): 359 nm

Structure (SMILES): c1ccc(-n2c(-c3cccc4ccccc34)nc3c4ccccc4c4ccccc4c32)cc1
emission maximum (in C1CCOC1): 413.91 nm
emission maximum (in CCCCCC): 384 nm
emission maximum (in CS(C)=O): 423 nm
emission maximum (in Cc1ccccc1): 410 nm
emission maximum (in ClCCl): 415.6 nm

Structure (SMILES): CCN1\C(=C/C=C/C=C/C2=[N+](CC)c3ccc4ccccc4c3C2(C)C)C(C)(C)c2c1ccc1ccccc21
emission maximum (in C1CCOC1): 707 nm
emission maximum (in CC#N): 695 nm
emission maximum (in CC(C)=O): 698 nm
emission maximum (in CCO): 702 nm
emission maximum (in CN(C)C=O): 702 nm
emission maximum (in CO): 698 nm
emission maximum (in CS(C)=O): 705 nm
emission maximum (in ClCCl): 710 nm

Structure (SMILES): CC(C)(C)c1cc(-c2ccc3c(-c4cc(C(C)(C)C)cc(C(C)(C)C)c4)cc4c5cc(-c6cc(C(C)(C)C)cc(C(C)(C)C)c6)ccc5c(-c5cc(C(C)(C)C)cc(C(C)(C)C)c5)cc4c3c2)cc(C(C)(C)C)c1
emission maximum (in ClCCl): 401 nm

Structure (SMILES): CCOC(=O)CN1C(=O)C2=C(c3ccc(C#N)cc3)N(CC(=O)OCC)C(=O)C2=C1c1ccccc1
emission maximum (in CC#N): 538 nm
emission maximum (in CS(C)=O): 547 nm
emission maximum (in Cc1ccccc1): 544 nm

Structure (SMILES): CC(=O)Nc1ccc2c3c(cccc13)C(=O)c1ccccc1-2
emission maximum (in CC#N): 539.96 nm
emission maximum (in CC(C)=O): 526.04 nm
emission maximum (in CC(C)O): 567.86 nm
emission maximum (in CCCCOCCCC): 507.1 nm
emission maximum (in CCOC(C)=O): 520.02 nm
emission maximum (in CCOCC): 518.13 nm
emission maximum (in CO): 573.07 nm
emission maximum (in Cc1ccccc1): 516 nm
emission maximum (in Clc1ccccc1): 520.02 nm
emission maximum (in N#Cc1ccccc1): 527.98 nm
emission maximum (in O=C1CCCCC1): 526.87 nm

Structure (SMILES): CCCCC(CC)CN1C(=O)c2cccc3c(C#Cc4ccc(N(c5ccccc5)c5ccc(C#Cc6ccc7c8c(cccc68)C(=O)N(CC(CC)CCCC)C7=O)cc5)cc4)ccc(c23)C1=O (stereo not given)
emission maximum (in C1CCCCC1): 472 nm
emission maximum (in C1CCOC1): 631 nm
emission maximum (in CC#N): 549 nm
emission maximum (in Cc1ccccc1): 514 nm
emission maximum (in ClC(Cl)Cl): 587 nm

Structure (SMILES): c1ccc(C2=C(c3ccccc3)c3cccc4c3c(cc3nc5cc(-c6ccc(N(c7ccccc7)c7ccccc7)cc6)c(-c6ccc(N(c7ccccc7)c7ccccc7)cc6)cc5nc34)O2)cc1
emission maximum (in ClCCl): 568 nm

Structure (SMILES): FC(F)(F)c1ccc(B2c3ccccc3Nc3ccccc32)c(C(F)(F)F)c1
emission maximum (in ClCCl): 407 nm

Structure (SMILES): COc1ccc(C2=c3sc(-c4ccc(OC)cc4)cc3=[N+]3C2=Nc2c(-c4ccc(OC)cc4)c4sc(-c5ccc(OC)cc5)cc4n2[B-]3(F)F)cc1
emission maximum (in ClC(Cl)Cl): 814 nm

Structure (SMILES): N#Cc1c(N2CCCCC2)cc(-c2ccc(-c3ccccc3)s2)c2c1CCc1ccccc1-2
emission maximum (in C1CCOC1): 515 nm

Structure (SMILES): c1ccc(-c2nc(-c3ccccc3)nc(-c3ccc(-n4c5ccccc5c5c6c(ccc54)-c4ccccc4C6(c4ccccc4)c4ccccc4)cc3)n2)cc1
emission maximum (in C1CCOC1): 504.15 nm
emission maximum (in CCCCCC): 407.03 nm
emission maximum (in Cc1ccccc1): 446 nm
emission maximum (in ClCCl): 530.05 nm
emission maximum (in O=P(c1ccccc1)(c1ccccc1)c1ccccc1Oc1ccccc1P(=O)(c1ccccc1)c1ccccc1): 475 nm

Structure (SMILES): N#Cc1nn(-c2ccc(Cl)cc2)nc1N1CCCC1
emission maximum (in CC#N): 429 nm

Structure (SMILES): COC(=O)C(Cc1ccc2oc(-c3ccc(Nc4ccccc4)cc3)nc2c1)NC(=O)OC(C)(C)C (stereo not given)
emission maximum (in C1CCCCC1): 382 nm
emission maximum (in C1CCOC1): 419.01 nm
emission maximum (in C1COCCO1): 410.51 nm
emission maximum (in CC1CCCO1): 425.01 nm
emission maximum (in CC1COC(=O)O1): 457.5 nm
emission maximum (in CC#N): 452 nm
emission maximum (in CC(C)=O): 439.5 nm
emission maximum (in CC(C)CC(C)(C)C): 384 nm
emission maximum (in CC(C)CO): 438 nm
emission maximum (in CC(C)O): 440.51 nm
emission maximum (in CC(C)OC(C)C): 426 nm
emission maximum (in CC(O)CO): 438 nm
emission maximum (in CCC(C)CC): 382.98 nm
emission maximum (in CCCCC): 382 nm
emission maximum (in CCCCCC): 383.49 nm
emission maximum (in CCCCCCCCC): 384.5 nm
emission maximum (in CCCCCCCCCC): 385 nm
emission maximum (in CCCCCCCO): 434.5 nm
emission maximum (in CCCCCCO): 429 nm
emission maximum (in CCCCCO): 424 nm
emission maximum (in CCCCO): 441.5 nm
emission maximum (in CCO): 453.49 nm
emission maximum (in CCOC(C)=O): 412 nm
emission maximum (in CCOCC): 409.5 nm
emission maximum (in CN(C)C=O): 447.51 nm
emission maximum (in CO): 457 nm
emission maximum (in COCCOC): 440.01 nm
emission maximum (in CS(C)=O): 459.5 nm
emission maximum (in Cc1ccccc1): 401.49 nm
emission maximum (in Cc1ccccc1C): 401.49 nm
emission maximum (in ClC(Cl)Cl): 420.01 nm
emission maximum (in ClCCl): 415.51 nm
emission maximum (in NC=O): 447.01 nm
emission maximum (in OC1CCCCC1): 440.01 nm
emission maximum (in OCCO): 443.01 nm
emission maximum (in c1ccccc1): 398.5 nm

Second part, the compound after the results:

emission maximum (in C1COCCO1): 484 nm
emission maximum (in CC#N): 502 nm
emission maximum (in ClCCl): 490 nm
Structure (SMILES): CCCn1c(=O)c(/C=C/c2nc3ccc(C)cc3n(CCC)c2=O)nc2ccc(C)cc21

emission maximum (in C1CCOC1): 420 nm
Structure (SMILES): CC(=O)c1ccc(-c2cnc3nn4ccccc4c3c2)cc1

emission maximum (in ClCCl): 457 nm
Structure (SMILES): Cc1ccc(C2=Nc3cccc4[n+]3[B-](F)(O2)OC(c2ccc(C)cc2)=N4)cc1

emission maximum (in CO): 586 nm
Structure (SMILES): CCN(C)c1ccc(C2=C3C(C)=CC(/C=C/c4ccc(OCCCN=[N+]=[N-])cc4)=[N+]3[B-](F)(F)n3c(C)cc(C)c32)cc1

emission maximum (in CS(C)=O): 412 nm
Structure (SMILES): COc1cccc(-c2nc3sc4ccccc4c3s2)c1

emission maximum (in CC#N): 618 nm
emission maximum (in ClCCl): 645 nm
emission maximum (in O): 622 nm
Structure (SMILES): CN(C)c1ccc(/C=C/c2ccc3ccccc3[n+]2C)cc1

emission maximum (in CCCCCC): 384 nm
emission maximum (in CO): 384 nm
emission maximum (in ClCCl): 385 nm
Structure (SMILES): CCCCc1ccc2ccc3c(CCCC)cc(CCCC)c4ccc1c2c34

emission maximum (in ClC(Cl)Cl): 533 nm
Structure (SMILES): CCCCN1C(=O)c2ccc3c4ccc5c6c(ccc(c7ccc(c2c37)C1=O)c64)C(=O)N(CCCC)C5=O

emission maximum (in ClCCl): 432 nm
Structure (SMILES): CCOC(=O)c1ccc(C2=Cc3cc4ccccc4cc3P2(=O)c2ccccc2)cc1 (stereo not given)

emission maximum (in CC#N): 420 nm
Structure (SMILES): C=Cc1cc2ccc(OC(=O)c3ccccc3)cc2oc1=O

emission maximum (in C1CCOC1): 533 nm
emission maximum (in ClC(Cl)Cl): 592 nm
emission maximum (in ClCCl): 635 nm
Structure (SMILES): COc1ccc2cc(C#Cc3ccc([N+](=O)[O-])cc3)ccc2c1

emission maximum (in CC(C)(C)O): 444 nm
emission maximum (in CC(C)CO): 453 nm
emission maximum (in CC(C)O): 455 nm
emission maximum (in CCCCO): 458 nm
emission maximum (in CCCO): 459 nm
emission maximum (in CCO): 462 nm
emission maximum (in CN(C)C=O): 423 nm
emission maximum (in CNC=O): 458 nm
emission maximum (in CO): 468 nm
emission maximum (in NC=O): 463 nm
emission maximum (in O): 485 nm
Structure (SMILES): COCCOCCOCCOc1ccc(OCCOCCOCCOC)c(C=O)c1

emission maximum (in CC#N): 593 nm
emission maximum (in CCCCCCC): 403 nm
emission maximum (in CO): 417 nm
emission maximum (in O): 540 nm
Structure (SMILES): O=[N+]([O-])c1ccc(/C=C/c2cn(S(=O)(=O)c3ccccc3)c3ccccc23)cc1

emission maximum (in ClCCl): 392 nm
Structure (SMILES): CCn1c2ccc(-c3cccs3)cc2c2cc(-c3cccs3)ccc21

emission maximum (in CC#N): 513 nm
Structure (SMILES): C[C@]12SC(=O)C=C1c1nc(-c3ccccc3)[nH]c1C1=CC(=O)S[C@@]12C

emission maximum (in ClCCl): 427 nm
Structure (SMILES): CCCCCC(=O)c1cccc2sc3c(c12)P(=O)(c1ccccc1)c1ccccc1-3 (stereo not given)

emission maximum (in CC#N): 392 nm
Structure (SMILES): Cc1ccc(-c2ccc(/C=C/c3ccccc3)cn2)nc1

emission maximum (in ClCCl): 424 nm
Structure (SMILES): CC(=O)c1c(N[C@@H](CS)C(=O)O)c2ccc(N(C)C)cc2oc1=O

emission maximum (in CO): 674 nm
emission maximum (in ClC(Cl)Cl): 699 nm
Structure (SMILES): CC[n+]1c(C=C2C(=O)C(C=C3Sc4cc(Cl)ccc4N3C)=C2[O-])[se]c2ccccc21
